Experimental data reported in patent US20250084069A1, “GERALEXIN AND USES THEREOF FOR THE TREATMENT OF RETINAL DEGENERATIVE DISEASES” (INSTITUT NATIONAL DE LA SANTÉ ET DE LA RECHERCHE MÉDICALE, priority 2022, published 2025).

Columns and labels:
[1] = tested on: cones of cone-enriched cultures from chicken embryo; assay: Cone survival in cone-enriched cultures from chicken embryo (live/dead assay); format: cell-based
Description: FIG. 1: Identification of an extract from Uvaria chamae protecting cones by high content screening of 800 extracts from 200 medicinal plants using cone-enriched cultures from chicken embryo. A. The set represents a total of 12,800 tests. a: methanol polyamide, b: ethyl acetate, c: depleted ethyl acetate, d: depleted methanol. The figure gives an overview of the screening. […] C. Chromatogram of the fractionation by HPLC of Uvaria chamae the fraction Ucac3. The eight fractions (Ucac3F 1-8) are indicated by grey/white shading. D. Test of the protective activity on cones of the Ucac3 fractions 1-8. E. Purification scheme. F. Chromatographic profile of purified Geralexin. G. Structure of Geralexin (C37H66O7).
(§1) The therapeutic molecule, the acetogenin Geralexin (C37H66O7) (FIG. 1G) was purified to homogeneity from 100 kg of leaves of Uvaria chamae, a medicinal plant. […] We have fractionated Uvaria chamae extract by 7 steps of chromatography and characterized the molecule that we called Geralexin (FIG. 1E). […] Uc acts as RdCVF by stimulating aerobic glycolysis. […] The hydrophobicity of acetogenins allows their penetration into cones where Geralexin could bind and activate aerobic glycolysis (FIG. 2F-H). We search for genes encoding glycolytic enzymes with an expression profile indicating possible function in photoreceptors in our own web database KBaSS. […] PFKFB2 is a bifunctional protein with a N-terminal kinase domain that converts fructose 6 phosphate (F6P) into fructose 2,6 biphosphate (F26BP), an allosteric activator of phosphofructokinase (PFK), which catalyzes the rate-limiting step of glycolysis. […] We have analyzed the metabolome of the cone-enriched cultures exposed to Uc with the platform MetaToul (Toulouse). […] Our hypothesis is that Geralexin could be a treatment, alone or in addition to other interventions for dry AMD by preventing cone outer segment shortening and maintaining central vision.

[2] = tested on: phosphofructokinase (PFK); assay: Metabolomic analysis of cone-enriched cultures (MetaToul platform); format: cell-based, chicken; details: by metabolomic analysis
Description: (§2) G6P: glucose-6-phosphate, F6P; fructose-6-phosphate, F16BP: fructose-1,6-biphosphate, G3P: glycerol-3-phosphate, 2/3PG: 2- and 3-phosphoglycerate and PEP: phosphoenol pyruvate,
as §1

[3] = tested on: cones of rd1 retinal explants; assay: Cone protection on cultured retinal explants of the rd1 mouse; format: cell-based
PFKFB2 mRNA = PFKFB2 mRNA expression by cones of cone-enriched culture, quantitative RT-PCR; format: cell-based, chicken
Description: as §2, §1

glucose uptake by cones = assay: Uptake of NBDG (fluorescent deoxyglucose derivative) in cone-enriched cultured cells; format: cell-based, chicken
Experimental: FIG. 2: Geralexin protects cones by stimulating aerobic glycolysis. A. Analysis of the effect of cone cell morphology in cone-enriched cultures by Geralexin (UcaC3F8f3). Cells are labeled with calcein AM. […] C. […] G. Comparative analysis of the protection of Geralexin (Uc: G3) on cone-enriched cultures in 15 versus 30 mM glucose. H. Ratio Geralexin+/no Geralexin.
The therapeutic molecule, the acetogenin Geralexin (C37H66O7) (FIG. 1G) was purified to homogeneity from 100 kg of leaves of Uvaria chamae, a medicinal plant. […] We have fractionated Uvaria chamae extract by 7 steps of chromatography and characterized the molecule that we called Geralexin (FIG. 1E). […] Uc acts as RdCVF by stimulating aerobic glycolysis. […] The hydrophobicity of acetogenins allows their penetration into cones where Geralexin could bind and activate aerobic glycolysis (FIG. 2F-H). We search for genes encoding glycolytic enzymes with an expression profile indicating possible function in photoreceptors in our own web database KBaSS. […] PFKFB2 is a bifunctional protein with a N-terminal kinase domain that converts fructose 6 phosphate (F6P) into fructose 2,6 biphosphate (F26BP), an allosteric activator of phosphofructokinase (PFK), which catalyzes the rate-limiting step of glycolysis. […] We have analyzed the metabolome of the cone-enriched cultures exposed to Uc with the platform MetaToul (Toulouse). […]

CCCCCCCCCC1OC1C1CCC(/C=C\C=C\CCC(O)C(O)CCC(O)CCCCCCCCCCC(=O)O)O1 (stereo not shown) [Geralexin]
protective effect on cones after silencing BSG1 ([1]; cone-enriched culture after electroporation of a micro RNA targeting BSG1): Absence of reduction of the protective effect | cone survival / protection of cones ([1]; cone-enriched cultures from chicken embryo): stimulates aerobic glycolysis and cone survival | effect of oxamate on the cone survival effect ([1]; cone-enriched cultures, with lactate dehydrogenase inhibitor oxamate): Reduction of the protection of cone | phosphofructokinase (PFK) activity [2]: Increase phosphofructokinase (PFK) activity | protection of cones / cone survival [3]: Protection of cones | expression of PFKFB2 mRNA (PFKFB2 mRNA): Increase expression of PFKFB2 mRNA | glucose (NBDG) uptake by cones (glucose uptake by cones): Increase of the uptake of NBDG
